Source: PubChem BioAssay (NCI)
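Briefly, cells in 96-well plates were exposed to five compound concentrations for 48 h, and endpoints were estimated by linear interpolation. At the GI50, growth is halved. TGI: total growth inhibition.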

How the values were obtained:
Assay in all cases: inhibition of tumour cell growth, NCI panel, 48 h
786-0 renal = system: 786-0 renal
A498 renal = system: A498 renal
A549 NSCLC = system: A549 NSCLC
ACHN renal = system: ACHN renal
BT-549 breast = system: BT-549 breast
CAKI-1 renal = system: CAKI-1 renal
CCRF-CEM leukemia = system: CCRF-CEM leukemia
COLO 205 colon = system: COLO 205 colon
DU-145 prostate = system: DU-145 prostate
EKVX NSCLC = system: EKVX NSCLC
HCC-2998 colon = system: HCC-2998 colon
HCT-116 colon = system: HCT-116 colon
HCT-15 colon = system: HCT-15 colon
HL-60(TB) leukemia = system: HL-60(TB) leukemia
HOP-62 NSCLC = system: HOP-62 NSCLC
HOP-92 NSCLC = system: HOP-92 NSCLC
HS 578T breast = system: HS 578T breast
IGROV1 ovarian = system: IGROV1 ovarian
K-562 leukemia = system: K-562 leukemia
KM12 colon = system: KM12 colon
LOX IMVI melanoma = system: LOX IMVI melanoma
M14 melanoma = system: M14 melanoma
MALME-3M melanoma = system: MALME-3M melanoma
MCF7 breast = system: MCF7 breast
MDA-MB-231 breast = system: MDA-MB-231 breast
MDA-MB-435 = system: MDA-MB-435
MDA-MB-468 breast = system: MDA-MB-468 breast
MOLT-4 leukemia = system: MOLT-4 leukemia
NCI-H226 lung = system: NCI-H226 lung
NCI-H23 lung = system: NCI-H23 lung
NCI-H460 lung = system: NCI-H460 lung
NCI-H522 lung = system: NCI-H522 lung
OVCAR-3 ovarian = system: OVCAR-3 ovarian
OVCAR-4 ovarian = system: OVCAR-4 ovarian
OVCAR-5 ovarian = system: OVCAR-5 ovarian
OVCAR-8 ovarian = system: OVCAR-8 ovarian
PC-3 prostate = system: PC-3 prostate
RXF 393 renal = system: RXF 393 renal
SF-268 CNS = system: SF-268 CNS
SF-295 CNS = system: SF-295 CNS
SF-539 CNS = system: SF-539 CNS
SK-MEL-2 melanoma = system: SK-MEL-2 melanoma
SK-MEL-28 melanoma = system: SK-MEL-28 melanoma
SK-MEL-5 melanoma = system: SK-MEL-5 melanoma
SK-OV-3 ovarian = system: SK-OV-3 ovarian
SN12C renal = system: SN12C renal
SNB-19 CNS = system: SNB-19 CNS
SNB-75 CNS = system: SNB-75 CNS
SR leukemia = system: SR leukemia
SW-620 colon = system: SW-620 colon
TK-10 renal = system: TK-10 renal
U251 CNS = system: U251 CNS
UACC-257 melanoma = system: UACC-257 melanoma
UACC-62 melanoma = system: UACC-62 melanoma
UO-31 renal = system: UO-31 renal

CC(C)(C)Nc1nc2cc(Cl)c(Cl)cc2nc1S(C)(=O)=O
GI50 (786-0 renal): 1.84 µM | TGI (786-0 renal): 3.47 µM | GI50 (A498 renal): 19.2 µM | TGI (A498 renal): 33.5 µM | GI50 (A549 NSCLC): 13.5 µM | TGI (A549 NSCLC): 27.6 µM | GI50 (ACHN renal): 1.75 µM | TGI (ACHN renal): 3.35 µM | GI50 (BT-549 breast): 1.74 µM | TGI (BT-549 breast): 3.41 µM | GI50 (CAKI-1 renal): 1.58 µM | TGI (CAKI-1 renal): 3.01 µM | GI50 (CCRF-CEM leukemia): 0.307 µM | TGI (CCRF-CEM leukemia): 3.77 µM | GI50 (COLO 205 colon): 1.7 µM | TGI (COLO 205 colon): 3.28 µM | GI50 (DU-145 prostate): 3.46 µM | TGI (DU-145 prostate): 12.1 µM | GI50 (EKVX NSCLC): 13.3 µM | TGI (EKVX NSCLC): 27 µM | GI50 (HCC-2998 colon): 8.7 µM | TGI (HCC-2998 colon): 20.9 µM | GI50 (HCT-116 colon): 1.67 µM | TGI (HCT-116 colon): 3.44 µM | GI50 (HCT-15 colon): 1.53 µM | TGI (HCT-15 colon): 3.03 µM | GI50 (HL-60(TB) leukemia): 4.03 µM | TGI (HL-60(TB) leukemia): 20.1 µM | GI50 (HOP-62 NSCLC): 14.9 µM | TGI (HOP-62 NSCLC): 29.2 µM | GI50 (HOP-92 NSCLC): 2 µM | TGI (HOP-92 NSCLC): 4.88 µM | GI50 (HS 578T breast): 7.29 µM | TGI (HS 578T breast): 35.2 µM | GI50 (IGROV1 ovarian): 12.2 µM | TGI (IGROV1 ovarian): 25.6 µM | GI50 (K-562 leukemia): 1.05 µM | TGI (K-562 leukemia): 3.21 µM | GI50 (KM12 colon): 7.82 µM | TGI (KM12 colon): 24.7 µM | GI50 (LOX IMVI melanoma): 1.35 µM | TGI (LOX IMVI melanoma): 2.72 µM | GI50 (M14 melanoma): 1.71 µM | TGI (M14 melanoma): 3.43 µM | GI50 (MALME-3M melanoma): 1.64 µM | TGI (MALME-3M melanoma): 3.09 µM | GI50 (MCF7 breast): 1.9 µM | TGI (MCF7 breast): 4.23 µM | GI50 (MDA-MB-231 breast): 3.11 µM | TGI (MDA-MB-231 breast): 8.94 µM | GI50 (MDA-MB-435): 1.88 µM | TGI (MDA-MB-435): 4.17 µM | GI50 (MDA-MB-468 breast): 1.64 µM | TGI (MDA-MB-468 breast): 3.13 µM | GI50 (MOLT-4 leukemia): 0.411 µM | TGI (MOLT-4 leukemia): 1.97 µM | GI50 (NCI-H226 lung): 11.4 µM | TGI (NCI-H226 lung): 41.7 µM | GI50 (NCI-H23 lung): 2.09 µM | TGI (NCI-H23 lung): 5.07 µM | GI50 (NCI-H460 lung): 8.46 µM | TGI (NCI-H460 lung): 22.8 µM | GI50 (NCI-H522 lung): 1.2 µM | TGI (NCI-H522 lung): 2.63 µM | GI50 (OVCAR-3 ovarian): 1.89 µM | TGI (OVCAR-3 ovarian): 3.52 µM | GI50 (OVCAR-4 ovarian): 2.96 µM | TGI (OVCAR-4 ovarian): 9.57 µM | GI50 (OVCAR-5 ovarian): 14.6 µM | TGI (OVCAR-5 ovarian): 28.4 µM | GI50 (OVCAR-8 ovarian): 3.95 µM | TGI (OVCAR-8 ovarian): 19.6 µM | GI50 (PC-3 prostate): 8.63 µM | TGI (PC-3 prostate): 24.6 µM | GI50 (RXF 393 renal): 1.77 µM | TGI (RXF 393 renal): 3.64 µM | GI50 (SF-268 CNS): 15.9 µM | TGI (SF-268 CNS): 36.4 µM | GI50 (SF-295 CNS): 14.6 µM | TGI (SF-295 CNS): 28.1 µM | GI50 (SF-539 CNS): 6.38 µM | TGI (SF-539 CNS): 19.3 µM | GI50 (SK-MEL-2 melanoma): 4.14 µM | TGI (SK-MEL-2 melanoma): 16.1 µM | GI50 (SK-MEL-28 melanoma): 1.79 µM | TGI (SK-MEL-28 melanoma): 3.33 µM | GI50 (SK-MEL-5 melanoma): 2.18 µM | TGI (SK-MEL-5 melanoma): 5.77 µM | GI50 (SK-OV-3 ovarian): 13.3 µM | TGI (SK-OV-3 ovarian): 26.4 µM | GI50 (SN12C renal): 3.74 µM | TGI (SN12C renal): 14.4 µM | GI50 (SNB-19 CNS): 13.8 µM | TGI (SNB-19 CNS): 26.9 µM | GI50 (SNB-75 CNS): 8.16 µM | TGI (SNB-75 CNS): 24.4 µM | GI50 (SR leukemia): 0.504 µM | TGI (SR leukemia): 2.74 µM | GI50 (SW-620 colon): 1.48 µM | TGI (SW-620 colon): 2.96 µM | GI50 (TK-10 renal): 1.7 µM | TGI (TK-10 renal): 3.19 µM | GI50 (U251 CNS): 11.1 µM | TGI (U251 CNS): 24.5 µM | GI50 (UACC-257 melanoma): 1.99 µM | TGI (UACC-257 melanoma): 4.28 µM | GI50 (UACC-62 melanoma): 6.98 µM | TGI (UACC-62 melanoma): 19.8 µM | GI50 (UO-31 renal): 1.58 µM | TGI (UO-31 renal): 2.95 µM
